From patent US12370170B2, “Composition comprising naphthoquinone-based compound as active ingredient, for preventing or ameliorating fatigue, cachexia, pain, cognitive decline and hematopoietic stem cell reduction which are side effects related to anticancer drug treatment” (NADIANBIO LTD., priority 2016, dated 2025)

Assays:
Assay type in all cases: in vivo, C57BL/6 mice
[1] = test system: inflammatory cytokines TNF-α, IL-1β, IL-6 and IL-17; test: Plasma inflammatory cytokines by ELISA in gemcitabine (500 mg/kg) animal model; settings: gemcitabine 500 mg/kg i.p. once; dunnione 20 mg/kg oral daily from 3 days before; 2 days after gemcitabine; vs gemcitabine group
Description: (§1) In this invention, 11 weeks old C57BL/6 mice were used. All the mice used in the experiments of the invention were raised in an aseptic animal room at the temperature of 22˜26 L with the humidity of 55˜60%. The mice were allowed to take general solid feed (SAMTACO Co., Ltd., Korea) and water freely. The mice were adapted for 1 week before the experiment. All the experiments were performed after obtaining approval from the clinical trial management committee in accordance with the laboratory animal care and ethics regulations of Wonkwang University. The mouse animal model of the present invention was treated with different anticancer drugs. Particularly, one kind of anticancer drug was administered intraperitoneally one time or more, or several kinds of anticancer drugs were administered once or more times or at different concentrations, leading to the establishment of the animal model of the invention. […]
Plasma was isolated from the gemcitabine animal model prepared by the same manner as described in Example 5, and the inflammatory cytokines TNF-α, IL-1β, IL-6 and IL-17 were analyzed by ELISA.

[2] = Muscle loss (body weight, gastrocnemius muscle weight) in 3×ACP animal model; settings: 3×ACP i.p. once; dunnione 20 mg/kg oral daily from 3 days before; 2 and 4 days after ACP
Description: as §1
To investigate the regulatory effect of dunnione on muscle loss in the 3×ACP animal models prepared by the same manner as described in Example 6, the changes of body weight and gastrocnemius muscle weight were measured after the drug treatment.

[3] = test system: MAFbx, MuRF1 and Bnip3 mRNAs; test: Muscle loss related gene expression in cyclophosphamide induced animal model; settings: cyclophosphamide 350 mg/kg total; dunnione 20 mg/kg oral; vs cyclophosphamide group

Question: For `CC1OC2=C(C(=O)C(=O)c3ccccc32)C1(C)C` (stereo not shown) [dunnione, 2,3-dihydro-2,3,3-trimethyl naphtho [1,2-b]furan-4,5-dione], which “level of inflammatory cytokines (TNF-α, IL-1β, IL-6, IL-17) in plasma” value [1] is on record?
Answer: The value was “significantly reduced”.

Question: And the “reduction of gastrocnemius muscle weight and gastrocnemius muscle weight change” value [2]?
Answer: The value was “significantly restored”.

Question: What about the “weight loss (body weight)” value [2] of the same compound?
Answer: The value was “significantly restored”.

Question: What about the “expressions of MAFbx, MuRF1 and Bnip3 mRNAs in muscle” value [3] of the same compound?
Answer: The value was “significantly reduced”.
